Patent US20230044268A1, “AN IMPROVED PROCESS FOR PREPARATION OF LIRAGLUTIDE” (SHILPA MEDICARE LIMITED, priority 2019, published 2023)

Assay: storage stability of liraglutide obtained by the present process
Type: physicochemical
Conditions: storage of the isolated product; conditions not given
From the text: The present invention also relates to a process for the preparation of liraglutide, which is substantially pure having a purity of greater or equal to 99.5% and meeting the ICH guidelines. Further, the liraglutide obtained as per the present process is found devoid of any other process related impurities and is adequately stable to handle and store for longer time (at least up to more than 6 months) without any significant or measurable change in its morphology and physicochemical characteristics.

Liraglutide
stable to handle and store without any significant or measurable change in morphology and physicochemical characteristics: more than 6 months
